In US20020103398A1, “2-Amino-2-alky-4 heptenoic and heptynoic acid derivatives useful as nitric oxide synthase inhibitors” (priority 2000, published 2002):
Where a name gives a salt, the structure may show the parent alone.

What was measured:
Type in all cases: biochemical
[1] = biological target: T1, human endothelial constitutive NOS (hecNOS) (Homo sapiens, UniProt P29474); assay: Citrulline assay for nitric oxide synthase (hecNOS); settings: recombinant enzyme from Sf9 cells; 30 μM L-arginine; calmodulin 40-100 nM; 37° C., 15 minutes
T1 construct: made in house; host or cells: Sf9 insect cells, baculovirus vector
T1 sequence (P29474 2-1203): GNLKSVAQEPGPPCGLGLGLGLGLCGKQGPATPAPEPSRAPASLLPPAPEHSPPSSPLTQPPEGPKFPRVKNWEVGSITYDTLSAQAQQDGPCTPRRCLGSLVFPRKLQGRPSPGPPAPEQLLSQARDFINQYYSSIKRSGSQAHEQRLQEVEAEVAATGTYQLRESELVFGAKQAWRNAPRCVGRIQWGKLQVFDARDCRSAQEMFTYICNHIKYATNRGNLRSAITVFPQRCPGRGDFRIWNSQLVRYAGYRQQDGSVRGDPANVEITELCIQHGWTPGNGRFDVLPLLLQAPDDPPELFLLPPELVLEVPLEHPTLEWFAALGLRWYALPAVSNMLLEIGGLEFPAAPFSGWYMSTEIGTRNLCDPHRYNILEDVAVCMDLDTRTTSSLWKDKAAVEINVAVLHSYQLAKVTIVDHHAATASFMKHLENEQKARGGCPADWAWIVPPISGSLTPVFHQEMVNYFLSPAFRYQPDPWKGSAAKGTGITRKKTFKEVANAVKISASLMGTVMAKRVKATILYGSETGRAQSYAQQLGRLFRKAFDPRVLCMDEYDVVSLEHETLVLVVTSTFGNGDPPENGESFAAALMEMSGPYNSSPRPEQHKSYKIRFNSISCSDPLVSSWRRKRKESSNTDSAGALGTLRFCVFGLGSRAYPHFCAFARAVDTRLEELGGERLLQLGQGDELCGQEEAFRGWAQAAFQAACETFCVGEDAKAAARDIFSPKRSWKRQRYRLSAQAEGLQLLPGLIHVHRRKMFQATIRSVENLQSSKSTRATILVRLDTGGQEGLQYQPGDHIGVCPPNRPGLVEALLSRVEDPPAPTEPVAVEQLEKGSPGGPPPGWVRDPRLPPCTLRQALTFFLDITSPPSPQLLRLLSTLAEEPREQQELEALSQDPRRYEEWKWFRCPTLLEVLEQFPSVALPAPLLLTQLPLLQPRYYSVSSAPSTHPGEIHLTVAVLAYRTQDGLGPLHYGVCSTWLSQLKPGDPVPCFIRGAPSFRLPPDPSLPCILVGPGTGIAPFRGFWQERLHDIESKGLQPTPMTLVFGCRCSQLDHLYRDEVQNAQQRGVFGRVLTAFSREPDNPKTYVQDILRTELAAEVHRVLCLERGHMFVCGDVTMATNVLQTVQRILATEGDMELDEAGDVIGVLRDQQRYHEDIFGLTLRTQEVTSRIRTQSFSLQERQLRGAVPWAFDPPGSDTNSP
Excerpt: (§1) Nitric oxide synthase (NOS) activity can be measured by monitoring the conversion of L-[2,3-^3H]-arginine to L-[2,3-^3H]-citrulline (Bredt and Snyder, Proc. Natl. Acad. Sci. U.S.A., 87, 682-685, 1990 and Moore et al, J. Med. Chem. 39, 669-672, 1996). Human inducible NOS (hiNOS), human endothelial constitutive NOS (hecNOS) and human neuronal constitutive NOS (hncNOS) are each cloned from RNA extracted from human tissue. The cDNA for human inducible NOS (hiNOS) is isolated from a λcDNA library made from RNA extracted from a colon sample from a patient with ulcerative colitis. The cDNA for human endothelial constitutive NOS (hecNOS) is isolated from a λcDNA library made from RNA extracted from human umbilical vein endothelial cells (HUVEC) and the cDNA for human neuronal constitutive NOS (hncNOS) is isolated from a λcDNA library made from RNA extracted from human cerebellum obtained from a cadaver. […] After mixing the resin is allowed to settle and L-[2,3-^3H]-Citrulline formation is determined by counting aliquots of the supernatant with a liquid scintillation counter. IC50 values can be determined by testing each compound at several concentrations. […]

[2] = biological target: T2, human neuronal constitutive NOS (hncNOS) (Homo sapiens, UniProt P29475); assay: Citrulline assay for nitric oxide synthase (hncNOS); settings: recombinant enzyme from Sf9 cells; 30 μM L-arginine; calmodulin 40-100 nM; 37° C., 15 minutes
T2 construct: made in house; host or cells: Sf9 insect cells, baculovirus vector
T2 sequence (P29475 whole entry): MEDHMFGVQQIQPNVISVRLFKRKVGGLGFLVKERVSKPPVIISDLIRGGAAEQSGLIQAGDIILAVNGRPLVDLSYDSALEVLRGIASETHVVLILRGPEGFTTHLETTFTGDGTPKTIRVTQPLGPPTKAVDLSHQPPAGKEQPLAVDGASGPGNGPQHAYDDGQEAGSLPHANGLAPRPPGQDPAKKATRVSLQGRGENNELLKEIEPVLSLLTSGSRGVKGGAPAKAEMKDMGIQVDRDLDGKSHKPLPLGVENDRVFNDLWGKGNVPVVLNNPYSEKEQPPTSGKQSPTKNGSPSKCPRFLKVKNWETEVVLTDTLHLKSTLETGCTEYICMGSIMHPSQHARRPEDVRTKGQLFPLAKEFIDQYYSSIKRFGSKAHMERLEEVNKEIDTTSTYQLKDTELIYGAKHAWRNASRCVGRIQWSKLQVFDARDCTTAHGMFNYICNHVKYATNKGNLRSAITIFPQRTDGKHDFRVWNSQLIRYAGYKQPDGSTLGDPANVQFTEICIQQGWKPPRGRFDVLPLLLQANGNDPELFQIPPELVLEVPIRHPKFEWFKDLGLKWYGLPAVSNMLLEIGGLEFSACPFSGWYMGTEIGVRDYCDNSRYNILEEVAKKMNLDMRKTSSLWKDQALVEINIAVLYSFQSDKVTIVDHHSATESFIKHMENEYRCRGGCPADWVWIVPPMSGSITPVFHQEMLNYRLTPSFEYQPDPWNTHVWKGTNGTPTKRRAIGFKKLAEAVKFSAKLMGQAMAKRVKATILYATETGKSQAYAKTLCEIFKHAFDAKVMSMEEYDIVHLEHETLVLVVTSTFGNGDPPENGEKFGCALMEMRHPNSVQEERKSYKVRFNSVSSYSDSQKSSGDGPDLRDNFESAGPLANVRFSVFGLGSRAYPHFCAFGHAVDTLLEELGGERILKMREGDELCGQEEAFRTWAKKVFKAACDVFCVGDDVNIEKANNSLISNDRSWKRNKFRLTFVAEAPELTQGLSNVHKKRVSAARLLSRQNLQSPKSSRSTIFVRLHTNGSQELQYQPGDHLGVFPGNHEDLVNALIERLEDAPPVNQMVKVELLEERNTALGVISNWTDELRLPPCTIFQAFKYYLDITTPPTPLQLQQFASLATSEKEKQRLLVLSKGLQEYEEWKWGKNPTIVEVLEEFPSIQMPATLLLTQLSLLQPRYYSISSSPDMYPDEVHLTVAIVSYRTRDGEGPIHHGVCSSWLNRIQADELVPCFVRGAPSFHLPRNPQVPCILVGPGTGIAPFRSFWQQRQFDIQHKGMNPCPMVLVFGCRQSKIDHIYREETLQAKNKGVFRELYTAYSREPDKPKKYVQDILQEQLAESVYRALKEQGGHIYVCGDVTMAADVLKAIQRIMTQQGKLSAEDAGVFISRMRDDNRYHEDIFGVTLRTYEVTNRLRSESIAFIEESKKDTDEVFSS
Excerpt: as §1

[3] = biological target: T3, Human inducible NOS (hiNOS) (Homo sapiens, UniProt P35228); assay: Citrulline assay for nitric oxide synthase (hiNOS); settings: recombinant enzyme from Sf9 cells; 30 μM L-arginine; 37° C., 15 minutes
T3 construct: made in house; host or cells: Sf9 insect cells, baculovirus vector
T3 sequence (P35228 whole entry): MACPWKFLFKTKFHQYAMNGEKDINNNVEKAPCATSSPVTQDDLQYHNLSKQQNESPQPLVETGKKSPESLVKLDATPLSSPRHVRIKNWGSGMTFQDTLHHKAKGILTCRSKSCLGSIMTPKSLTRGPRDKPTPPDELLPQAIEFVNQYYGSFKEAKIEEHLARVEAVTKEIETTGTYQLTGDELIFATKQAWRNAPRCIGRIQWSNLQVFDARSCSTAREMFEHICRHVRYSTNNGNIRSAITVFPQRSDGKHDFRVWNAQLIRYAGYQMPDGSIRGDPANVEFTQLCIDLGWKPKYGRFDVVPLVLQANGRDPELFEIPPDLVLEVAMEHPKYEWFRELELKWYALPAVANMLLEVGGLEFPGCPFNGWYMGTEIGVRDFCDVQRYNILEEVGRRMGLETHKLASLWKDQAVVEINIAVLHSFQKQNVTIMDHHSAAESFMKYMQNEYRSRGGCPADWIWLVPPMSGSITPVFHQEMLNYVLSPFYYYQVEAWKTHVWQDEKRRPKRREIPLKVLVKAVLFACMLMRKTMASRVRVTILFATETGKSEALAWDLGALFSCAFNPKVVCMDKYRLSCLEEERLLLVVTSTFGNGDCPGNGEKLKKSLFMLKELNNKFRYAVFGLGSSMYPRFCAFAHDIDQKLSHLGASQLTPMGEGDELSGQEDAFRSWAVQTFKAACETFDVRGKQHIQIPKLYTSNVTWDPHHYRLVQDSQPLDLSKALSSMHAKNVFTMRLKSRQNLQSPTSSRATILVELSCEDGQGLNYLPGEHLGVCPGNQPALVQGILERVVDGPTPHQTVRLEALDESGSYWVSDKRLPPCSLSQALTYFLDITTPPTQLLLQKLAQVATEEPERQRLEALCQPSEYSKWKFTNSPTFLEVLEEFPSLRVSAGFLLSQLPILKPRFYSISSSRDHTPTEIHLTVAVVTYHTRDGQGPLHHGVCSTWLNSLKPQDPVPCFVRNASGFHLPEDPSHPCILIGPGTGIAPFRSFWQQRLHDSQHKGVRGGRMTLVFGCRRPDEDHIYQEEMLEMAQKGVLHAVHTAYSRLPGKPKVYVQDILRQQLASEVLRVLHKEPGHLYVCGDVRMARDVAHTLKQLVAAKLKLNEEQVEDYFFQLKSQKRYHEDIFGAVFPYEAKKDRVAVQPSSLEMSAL
Excerpt: as §1

CC(=N)NCC/C=C\CC(C)(N)C(=O)O (racemic) [Example 1, (2R/S,4Z)-2-amino-2-methyl-7-[(1-iminoethyl)amino]-4-heptenoic Acid, Dihydrochloride]
IC50 [1]: 386 µM
IC50 [2]: 122 µM
IC50 [3]: 34 µM
